From PMC12226733, “Evolution of iGluR ligand specificity, polyamine regulation, and ion selectivity inferred from a placozoan epsilon receptor” (Communications Biology, 2025)
“And” between values parts separate entries of the source, which are not always exact repeats. Equal entries are not always repeated. “Also recorded” adds a separate entry of the source. Where two headings read alike, the source gives them in different places.

Experiments:
[1] = biological target: T. adhaerens GluE1αA receptor (wildtype) (Trichoplax adhaerens, UniProt B3SAW0); test: whole-cell patch clamp, agonist-evoked currents in CHO-K1 cells; assay type: cell-based; conditions: for normalized peak inward current, Avg / normalized peak inward current, single recording: wild type; for sensitivity to agonist: 1 mM
[2] = test system: GluE1αA m1 variant (F732Y); assay type: cell-based, Trichoplax adhaerens; conditions: m1; ligand 10 mM; normalized to glycine
Excerpt: (§1) As noted, a model has been put forward that defines iGluR ligand specificity based on a set of key amino acids in the LBD of iGluRs[11]. […] To the best of our knowledge, whether these few positions are indeed solely responsible for ligand specificity, and moreover, can be altered to switch specificity for natural ligands, has not been experimentally tested. […] We also created a triple mutant, with an additional phenylalanine to tyrosine mutation at position 732 (F732Y; m3 variant), to make the T. adhaerens epsilon receptor resemble GluN2A and GluA2 receptors from human, reasoning that this mutation might enhance glutamate sensitivity. We also generated a single F732Y mutant (m1 variant), to assess the contribution of this amino acid to ligand specificity in isolation.
(§2) The cDNA of the T. adhaerens GluE1αA receptor was cloned into the mammalian expression vector pIRES2-EGFP, using a 5’ nested primer that inserted a mammalian consensus Kozak sequence of […] (Supplementary Table 5). Several mutants/variants of this receptor where also prepared via site directed mutagenesis using standard procedures and primers listed in Supplementary Table 5. For electrophysiological comparisons, we commissioned GenScript (USA) to synthesize the cDNA of the human GluA2 […] receptor (NCBI accession number NP_001077088.2), which was cloned into the pIRES2-EGFP vector with a Kozak sequence flanking the start codon and restriction enzymes SalI and BamHI at the 5’ and 3’ ends of the cDNA, respectively. Receptor cDNAs in the various pIRES2 constructs were transfected into Chinese Hamster Ovary-K1 (CHO-K1; Sigma) cells cultured in Dulbecco’s Modified Eagle Medium Nutrient Mixture F-12 (DMEM/F12) supplemented with 10% Fetal Bovine Serum (FBS) and 1% penicillin-streptomycin at 37°C. Transfections were done with 2 μg of plasmid vector using the transfecting reagent PolyJet^TM (SignaGen Laboratories, USA) according to the manufacturer’s instructions and plated onto glass coverslips in 35 mm dishes the next day. Transfected cells were incubated at 28°C for 2 to 4 days, then coverslips were transferred to a new 60 mm dish with 5 mL of external recording solution. […] Agonists and pharmacological compounds used in this study were dissolved in corresponding external solutions. […] Patch pipettes were pulled using a P-1000 micropipette puller (Sutter, USA), from thick-walled borosilicate tubing (1.5 and 0.86 outer and inner diameter, respectively), to a resistance of between 1 and 6 megaohms.

[3] = test system: GluE1αA m3 variant (S653G, I655T, F732Y); assay type: cell-based, Trichoplax adhaerens; conditions: for normalized peak inward current, Avg / normalized peak inward current, single recording / normalized current (dose response), Avg / normalized current (dose response), single recording: m3
Excerpt: as §1, §2

[4] = test system: GluE1αA m2 variant (S653G, I655T); assay type: cell-based, Trichoplax adhaerens; conditions: for normalized peak inward current, Avg / normalized peak inward current, single recording / normalized current (dose response), Avg / normalized current (dose response), single recording: m2
Excerpt: as §1, §2

[5] = ligand tested on its own at 10 mM
[6] = ligand 10 mM, normalized to glycine
[7] = ligand 10 mM, normalized to glutamate
[8] = tested as a single mix each at 3 mM

Chain of T. adhaerens GluE1αA receptor (wildtype) (B3SAW0 entry or part of it): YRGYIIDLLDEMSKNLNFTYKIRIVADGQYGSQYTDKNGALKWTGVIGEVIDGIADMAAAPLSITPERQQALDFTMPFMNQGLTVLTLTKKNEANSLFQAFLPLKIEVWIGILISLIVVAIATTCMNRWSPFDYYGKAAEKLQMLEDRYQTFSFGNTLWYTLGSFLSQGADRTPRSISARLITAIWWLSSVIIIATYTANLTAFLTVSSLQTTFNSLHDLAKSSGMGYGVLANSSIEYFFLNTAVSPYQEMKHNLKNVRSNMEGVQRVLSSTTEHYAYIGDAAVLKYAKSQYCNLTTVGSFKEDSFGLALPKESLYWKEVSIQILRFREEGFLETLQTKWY

N[C@@H](CC(=O)O)C(=O)O [aspartate]
activation of ligand-gated current [1, 5]: no responses

CSCC[C@H](N)C(=O)O [methionine]
activation of ligand-gated current [1]: no responses

N[C@@H](CCC(=O)O)C(=O)O [glutamate]
activation of ligand-gated current [1, 5]: no responses
normalized peak inward current, Avg ([1]; agonist 1 mM): 0.0035
normalized peak inward current, Avg [1, 6]: 0.00871
normalized peak inward current, Avg [2]: 0.02
normalized peak inward current, Avg ([3]; agonist 1 mM): 1.00
normalized peak inward current, single recording ([3]; agonist 1 mM, listed as Glu): 1.03 and 1.05 and 1.08 and 0.95 and 0.92 and 0.91
normalized current (dose response), Avg ([3]; glutamate 0.1 mM): 0.02
normalized current (dose response), Avg ([3]; glutamate 0.3 mM): 0.16
normalized current (dose response), single recording ([3]; glutamate 0.3 mM): 0.14 and 0.12 and 0.11 and 0.13 and 0.20 and 0.16 and 0.19
normalized current (dose response), Avg ([3]; glutamate 1 mM): 0.88
normalized current (dose response), single recording ([3]; glutamate 1 mM): 0.97 and 0.78 and 0.74 and 0.89 and 0.95 and 0.87 and 0.86 and 0.96
normalized current (dose response), Avg ([3]; glutamate 3 mM): 0.95
normalized current (dose response), single recording ([3]; glutamate 3 mM): 0.98 and 0.83 and 1.00 and 0.87
normalized peak inward current, Avg [3, 7]: 1.00
normalized peak inward current, single recording [3, 7]: 1.00
EC50 ([3]; m3 variant, dose response of normalized current): 610 ± 60 µM
normalized peak inward current, Avg ([4]; agonist 1 mM): 0.76
normalized peak inward current, single recording ([4]; agonist 1 mM, listed as Glu): 0.74 and 0.64 and 0.71 and 0.87 and 0.80
normalized current (dose response), Avg ([4]; glutamate 0.3 mM): 0.0181
normalized current (dose response), Avg ([4]; glutamate 1 mM): 0.22
normalized current (dose response), single recording ([4]; glutamate 1 mM): 0.14 and 0.22 and 0.25 and 0.19 and 0.27
normalized current (dose response), Avg ([4]; glutamate 3 mM): 0.76
normalized current (dose response), single recording ([4]; glutamate 3 mM): 0.66 and 0.88 and 0.67 and 0.63 and 0.98 and 0.72
normalized current (dose response), Avg ([4]; glutamate 10 mM): 0.98
normalized current (dose response), single recording ([4]; glutamate 10 mM): 1.00 and 0.98 and 0.92
normalized peak inward current, Avg [4, 7]: 1.00
normalized peak inward current, single recording [4, 7]: 1.00
sensitivity to agonist ([4]; m2 variant, 1 mM): robust responses
EC50 ([4]; m2 variant, dose response of normalized current): 1.81 ± 0.2 mM

NCCCC[C@H](N)C(=O)O [lysine]
activation of ligand-gated current [1, 8]: no responses

N[C@@H](CO)C(=O)O [L-serine]
activation of ligand-gated current [1, 5]: activated
normalized peak inward current, Avg [1, 6]: 0.94
normalized peak inward current, single recording [1, 6]: 1.00 and 0.98 and 0.94 and 0.78 and 0.93 and 0.97
normalized current (dose response), Avg ([1]; wildtype, ligand 0.03 mM): 0.017
normalized current (dose response), Avg ([1]; wildtype, ligand 0.10 mM): 0.35
normalized current (dose response), Avg ([1]; wildtype, ligand 0.30 mM): 0.95
normalized current (dose response), single recording ([1]; wildtype, ligand 0.30 mM): 1.00 and 0.97 and 0.95 and 0.77 and 0.99
normalized current (dose response), Avg ([1]; wildtype, ligand 1.00 mM): 1.00
normalized current (dose response), single recording ([1]; wildtype, ligand 1.00 mM): 0.99 and 1.00 and 0.98
normalized current (dose response), Avg ([1]; wildtype, ligand […]): 0.63
normalized peak inward current, Avg [2]: 1.05
normalized peak inward current, single recording [2]: 1.18 and 1.01 and 1.00 and 1.05
normalized peak inward current, Avg [3, 7]: 0.07
normalized peak inward current, Avg [4, 7]: 0.20
normalized peak inward current, single recording [4, 7]: 0.17 and 0.18 and 0.24 and 0.27

CN[C@H](CC(=O)O)C(=O)O [NMDA, N-methyl-D-aspartate]
normalized peak inward current, Avg ([1]; agonist 1 mM): 0.00229
sensitivity to agonist ([1]; wildtype): insensitivity; also recorded: not sensitive
normalized peak inward current, Avg ([3]; agonist 1 mM): 0.00471
normalized peak inward current, Avg ([4]; agonist 1 mM): 0.0107

Cc1onc(O)c1CC(N)C(=O)O (stereo not drawn) [AMPA, α-amino-3-hydroxy-5-methyl-4-isoxazolepropionic acid]
normalized peak inward current, Avg ([1]; agonist 1 mM): 0.00463
sensitivity to agonist ([1]; wildtype): insensitivity; also recorded: not sensitive
normalized peak inward current, Avg ([3]; agonist 1 mM): 0.36
normalized peak inward current, single recording ([3]; agonist 1 mM): 0.33 and 0.26 and 0.30 and 0.41 and 0.44 and 0.43
sensitivity to agonist ([3]; m3 variant, 1 mM): moderate responses; also recorded: sensitive
peak amplitude relative to current elicited by 1 mM glutamate ([3]; m3 variant, 1 mM AMPA, slow desensitizing currents): roughly 36%
normalized peak inward current, Avg ([4]; agonist 1 mM): 0.00676

CC[C@H](C)[C@H](N)C(=O)O [isoleucine]
activation of ligand-gated current [1, 8]: no responses

C[N+](C)(C)CC(=O)O [betaine]
activation of ligand-gated current [1, 5]: no responses

N[C@@H](Cc1c[nH]cn1)C(=O)O [histidine]
activation of ligand-gated current [1, 8]: no responses

N[C@H](CO)C(=O)O [D-serine]
activation of ligand-gated current [1, 5]: activated
normalized peak inward current, Avg [1, 6]: 0.95
normalized peak inward current, single recording [1, 6]: 0.93 and 1.00 and 0.86 and 0.89
normalized current (dose response), Avg ([1]; wildtype, ligand 0.03 mM): 0.0178
normalized current (dose response), Avg ([1]; wildtype, ligand 0.10 mM): 0.20
normalized current (dose response), Avg ([1]; wildtype, ligand 0.30 mM): 0.78
normalized current (dose response), single recording ([1]; wildtype, ligand 0.30 mM): 0.63 and 0.81 and 0.90 and 0.84 and 0.69 and 0.70
normalized current (dose response), Avg ([1]; wildtype, ligand 1.00 mM): 0.97
normalized current (dose response), single recording ([1]; wildtype, ligand 1.00 mM): 1.00 and 0.99 and 0.87 and 0.90
EC50 ([1]; wildtype, monophasic dose-response fit of normalized whole-cell current): 190 ± 40 µM
normalized peak inward current, Avg [2]: 0.76
normalized peak inward current, single recording [2]: 0.75 and 0.83 and 0.85 and 0.77 and 0.60
normalized peak inward current, Avg [3, 7]: 0.19
normalized peak inward current, Avg [4, 7]: 0.06
normalized peak inward current, single recording [4, 7]: 0.0548 and 0.0529 and 0.07 and 0.06 and 0.05

C=C(C)[C@H]1CN[C@H](C(=O)O)[C@H]1CC(=O)O [kainate]
normalized peak inward current, Avg ([1]; agonist 1 mM): 0.00265
sensitivity to agonist ([1]; wildtype): insensitivity; also recorded: not sensitive
normalized peak inward current, Avg ([3]; agonist 1 mM): 0.00374
normalized peak inward current, Avg ([4]; agonist 1 mM): 0.00537

C[C@@H](O)[C@H](N)C(=O)O [threonine]
activation of ligand-gated current [1, 5]: no responses

N=C(N)NCCC[C@H](N)C(=O)O [arginine]
activation of ligand-gated current [1, 5]: no responses

N[C@@H](Cn1oc(=O)[nH]c1=O)C(=O)O [quisqualate]
normalized peak inward current, Avg ([1]; agonist 1 mM): 0.00248
sensitivity to agonist ([1]; wildtype): not sensitive
normalized peak inward current, Avg ([3]; agonist 1 mM): 0.01
normalized peak inward current, Avg ([4]; agonist 1 mM): 0.00939

C[C@H](N)C(=O)O [alanine, L-alanine]
normalized current (dose response), Avg [1]: 0.80
normalized current (dose response), single recording [1]: 0.66 and 0.73 and 0.79 and 0.89 and 0.75 and 0.91 and 0.87 and 0.80
activation of ligand-gated current [1, 5]: activated
normalized peak inward current, Avg [1, 6]: 0.89
normalized peak inward current, single recording [1, 6]: 0.85 and 0.96 and 0.83 and 1.00 and 0.82
normalized current (dose response), Avg ([1]; wildtype, ligand 0.01 mM): 0.0244
normalized current (dose response), Avg ([1]; wildtype, ligand 0.03 mM): 0.28
normalized current (dose response), Avg ([1]; wildtype, ligand 0.30 mM): 1.00
normalized current (dose response), single recording ([1]; wildtype, ligand 0.30 mM): 1.00
normalized current (dose response), Avg ([1]; wildtype, ligand […]): 0.60
normalized peak inward current, Avg [2]: 1.12
normalized peak inward current, single recording [2]: 1.10 and 1.06 and 1.08 and 1.13 and 1.23
normalized peak inward current, Avg [3, 7]: 0.0342
normalized peak inward current, Avg [4, 7]: 0.36
normalized peak inward current, single recording [4, 7]: 0.33 and 0.37 and 0.40 and 0.41 and 0.31

CC(C)[C@H](N)C(=O)O [valine]
activation of ligand-gated current [1, 5]: weakly
normalized peak inward current, Avg [1, 6]: 0.35
normalized current (dose response), Avg ([1]; wildtype, ligand 0.30 mM): 0.0282
normalized current (dose response), Avg ([1]; wildtype, ligand 1.00 mM): 0.32
normalized current (dose response), Avg ([1]; wildtype, ligand 3.00 mM): 0.83
normalized current (dose response), single recording ([1]; wildtype, ligand 3.00 mM): 0.85 and 0.78 and 0.82 and 0.89 and 0.92 and 0.71 and 0.81 and 0.88
normalized current (dose response), Avg ([1]; wildtype, ligand 10.00 mM): 1.00
normalized current (dose response), single recording ([1]; wildtype, ligand 10.00 mM): 1.00
normalized current (dose response), Avg ([1]; wildtype, ligand […]): 0.56
normalized peak inward current, Avg [2]: 0.0347
normalized peak inward current, Avg [3, 7]: 0.0123
normalized peak inward current, Avg [4, 7]: 0.00917

CC(C)C[C@H](N)C(=O)O [leucine]
activation of ligand-gated current [1, 8]: no responses

N[C@@H](Cc1ccccc1)C(=O)O [phenylalanine]
activation of ligand-gated current [1, 8]: no responses
